Test results: patent publication US11690828B2, “Treatment of CNS diseases with sGC stimulators” (Cyclerion Therapeutics, Inc., priority 2016, dated 2023)

Columns and labels:
[1] = system: cGMP; experiment: Dose-response compound-induced cGMP in mouse brain (cerebrum); format: in vivo; details: 30 minutes after dosing
Protocol: Protocol. Experimental Day 1: Fast mice overnight with ad libitum access to water. Experimental Day 2: Mice (n=10 per experimental condition) were dosed P.O. with vehicle (1% hydroxypropyl methyl cellulose, 0.2% Tween80, 0.5% methyl cellulose), 3 or 10 mg/Kg of Compound I-2 prepared in vehicle. Thirty minutes after dosing, under isoflurane anesthesia, each mouse was decapitated and its brain was removed. The cerebrum was separated from each brain and placed in separate 15 ml falcon tubes and flash froze by immersion into liquid nitrogen. The tissue samples were stored at −80 C. cGMP levels in brain were determined by LC/MS. Brain samples were homogenized in an aqueous buffer consisting of 80:20 (V/V %) water:acetic acid using an ultrasonicator probe. Brain homogenates containing sGC compounds and or cGMP were extracted from brain tissue by protein precipitation with an organic solvent containing internal standards (IS) followed by filtration and phospholipid removal using a Phenomenex® Phree™ phospholipid removal plate. Samples were analyzed using liquid chromatography (LC) with tandem mass spectrometric detection (MS/MS) using electrospray ionization. The standard curve concentrations used for quantitation of cGMP and or sGC compound(s) ranged from 0.2 to 400 ng/mL. Protein quantification of brain samples was determined using BCA protein assay kit

[2] = system: rats; experiment: Oxaliplatin - acetone test (reaction time); format: in vivo, rat; details: Compound I-2 p.o. 10 mg/kg; 120 minutes after treatment
Protocol: Oxaliplatin. Induction: Acute peripheral neuropathy was induced by a single intraperitoneal injection of oxaliplatin (6 mg/kg, i.p) 30 hours before testing. Acetone test: Cold allodynia was measured using the acetone test. In this test, the latency of hind paw withdrawal was measured after application of a drop of acetone (50 μL) to the plantar surface of both hind paws three times for both hind paws alternatively with intervals of approximately 2-3 min.
Testing: 120 minutes after treatment. N=4/model/test. Results are expressed for each group as a percentage of activity calculated from the mean value of the vehicle-treated animals and compared to naïve animals, control paw, or cut-off value, depending on the test.

[3] = system: R6/2 mice hippocampal slices; experiment: Synaptic transmission and plasticity (LTP) in R6/2 mice hippocampal slices; format: cell-based, mouse
Protocol: Preparation of acute mice hippocampal slices. Experiments were carried out with 11 to 12 week-old R6/2 and WT mice provided by the Jackson Laboratory (USA). Hippocampal slices (350 μm thickness) were cut with a Macllwain tissue chopper in an ice-cold oxygenated sucrose solution (Saccharose 250, Glucose 11, NaHCO3 26, KCl 2, NaH2PO4 1.2, MgCl2 7, and CaCl2 0.5 in mM). The slices were incubated 1 hour at room temperature in ACSF of the following composition: Glucose 11, NaHCO3 25, NaCl 126, KCl 3.5, NaH2PO4 1.2, MgCl2 1.3, and CaCl2 2 in mM. Then, the slices were let to recover for at least 1 h.
Slice perfusion and temperature control. During the experiments, the slices were continuously perfused with the ACSF (bubbled with 95% O2-5% CO2) at the rate of 3 mL/min with a peristaltic pump (MEA chamber volume: ˜1 mL). Complete solution exchange in the MEA chamber was achieved 20 s after the switch of solutions. The perfusion liquid was continuously pre-heated at 37° C. just before reaching the MEA chamber with a heated-perfusion cannula (PH01, MultiChannel Systems, Reutlingen, Germany). The temperature of the MEA chamber was maintained at 37±0.1° C. with a heating element located in the MEA amplifier headstage.
Input/Output (I/O) curve: from 100 to 800 μA, by 100 μA steps. The stimulus intensity was then set to a fixed value of 250 μA for the short- and long-term synaptic plasticity measurements.
Short-term plasticity properties: two pulses with a decreasing inter-stimuli interval (e.g. 300 ms, 200 ms, 100 ms, 50 ms, 25 ms) were applied. Compound application: fEPSP were recorded for 10 minutes in control conditions (to verify the baseline steadiness) followed by a 15-minute exposure to the compound (or 25 minutes in the presence of vehicle only for control slices). A second I/O protocol and paired-pulse protocol were applied, as described previously, in the continuous presence of the compound.
Long-Term Potentiation (LTP): Following a 10-minute control period (in the presence of the compound or vehicle for control slices), LTP was induced by a 10×TBS. Potentiation of synaptic transmission was then monitored for an additional 60-minute period (in the continuous presence of the compound or vehicle for control slices).

[4] = 855 nM, R6/2 hippocampal slices

Compound | cGMP in mouse brain as compared to vehicle dosed animals ([1]; acute 3 mg/Kg P.O.) | cGMP in mouse brain as compared to vehicle dosed animals ([1]; acute 10 mg/Kg P.O.) | % of activity vs. vehicle, oxaliplatin acetone test (reaction time) [2] | Potentiation in R6/2 slices compared to R6/2 control slices ([3]; 855 nM) | fEPSP amplitude (basal synaptic transmission) ([3]; 855 nM for 15 minutes, R6/2 hippocampal slices) | I/O characteristics [3, 4] | Paired-pulse properties [3, 4] | LTP: fEPSP increase at endpoint after HFS ([3]; 855 nM, R6/2 hippocampal slices, WT control 36±3%, R6/2 control 15±2%)
Fc1ccccc1Cn1nc(-c2nc(C(F)(F)F)n[nH]2)c2cccnc21 [Compound I-2] | increases | increases | 127% | – | – | – | – | –
FC(F)(F)c1n[nH]c(-c2nc(Cc3cncnc3)c3ccccn23)n1 [Compound I-5] | – | – | – | significantly increased | did not modify | significantly higher | significantly increased | 40±6%
